According to PubChem BioAssay AID1963434 (Molecular Pharmacology Branch, DTP, NCI, 2024):
pIC50: −log10 of the molar value.

Test system: 755483-174-R-J1-PDC complex spheroid growth, percent test/control
Experiment: Anticancer human tumor 755483-174-R-J1-PDC patient-derived rhabdomyosarcoma cell line growth inhibition [Asc]
Conditions: for pIC50: curve of first compound; for viability, T/C: stronger effect = lower value
Summary of the method: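 Stromal components (HUVEC and hMSC) are co-assembled with the cancer cells into multicellular spheroids. Drugs are then added singly or paired, at concentrations falling by half-log increments from a clinically achievable maximum, capped at 10 microM without known Cmax.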

[1] = second compound 0.1 µM, first compound 0.00316 µM
[2] = second compound 0.1 µM, first compound 0.01 µM
[3] = second compound 0.1 µM, first compound 0.0316 µM
[4] = second compound 0.1 µM, first compound 0.1 µM
[5] = second compound 0.1 µM, first compound 0.316 µM
[6] = second compound 0.1 µM, first compound 1 µM
[7] = second compound 0.316 µM, first compound 0.00316 µM
[8] = second compound 0.316 µM, first compound 0.01 µM
[9] = second compound 0.316 µM, first compound 0.0316 µM
[10] = second compound 0.316 µM, first compound 0.1 µM
[11] = second compound 0.316 µM, first compound 0.316 µM
[12] = second compound 0.316 µM, first compound 1 µM
[13] = second compound 1 µM, first compound 0.00316 µM
[14] = second compound 1 µM, first compound 0.01 µM
[15] = second compound 1 µM, first compound 0.0316 µM
[16] = second compound 1 µM, first compound 0.1 µM
[17] = second compound 1 µM, first compound 0.316 µM
[18] = second compound 1 µM, first compound 1 µM
[19] = second compound 3.16 µM, first compound 0.00316 µM
[20] = second compound 3.16 µM, first compound 0.01 µM
[21] = second compound 3.16 µM, first compound 0.0316 µM
[22] = second compound 3.16 µM, first compound 0.1 µM
[23] = second compound 3.16 µM, first compound 0.316 µM
[24] = second compound 3.16 µM, first compound 1 µM
[25] = second compound 10 µM, first compound 0.00316 µM
[26] = second compound 10 µM, first compound 0.01 µM
[27] = second compound 10 µM, first compound 0.0316 µM
[28] = second compound 10 µM, first compound 0.1 µM
[29] = second compound 10 µM, first compound 0.316 µM
[30] = second compound 10 µM, first compound 1 µM
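Note: spheroids exposed to compounds for seven days before readout.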

## CCN1CCN(Cc2ccc(Nc3ncc(F)c(-c4cc(F)c5nc(C)n(C(C)C)c5c4)n3)nc2)CC1 + Cc1c(S(C)(=O)=O)c(-c2cc(F)cc(N3CCN(c4ccc(NS(=O)(=O)c5ccc(NC(CCN6CCC(C(=O)OCCCP(=O)(O)O)CC6)CSc6ccccc6)c(S(=O)(=O)C(F)(F)F)c5)cc4)CC3)c2)c(-c2ccc(Cl)cc2)n1C(C)C
Second compound 0.1 µM
  pIC50: < 6.00
Second compound 0.316 µM
  pIC50: > 8.50
Second compound 1 µM
  pIC50: > 8.50
Second compound 3.16 µM
  pIC50: > 8.50
Second compound 10 µM
  pIC50: > 8.50
[1]
  viability, T/C: 43%
[2]
  viability, T/C: 62.1%
[3]
  viability, T/C: 59.5%
[4]
  viability, T/C: 68.5%
[5]
  viability, T/C: 103%
[6]
  viability, T/C: 104%
[7]
  viability, T/C: 41%
[8]
  viability, T/C: 48%
[9]
  viability, T/C: 57.9%
[10]
  viability, T/C: 59.3%
[11]
  viability, T/C: 69%
[12]
  viability, T/C: 81.7%
[13]
  viability, T/C: 33.3%
[14]
  viability, T/C: 45.3%
[15]
  viability, T/C: 37.3%
[16]
  viability, T/C: 50.2%
[17]
  viability, T/C: 49.5%
[18]
  viability, T/C: 49.7%
[19]
  viability, T/C: 31.3%
[20]
  viability, T/C: 66%
[21]
  viability, T/C: 36.6%
[22]
  viability, T/C: 45.4%
[23]
  viability, T/C: 40.9%
[24]
  viability, T/C: 58.5%
[25]
  viability, T/C: 52.8%
[26]
  viability, T/C: 41.9%
[27]
  viability, T/C: 55%
[28]
  viability, T/C: 54.4%
[29]
  viability, T/C: 66.9%
[30]
  viability, T/C: 70.9%

## NC(=O)C(=Cn1cnc(-c2cc(C(F)(F)F)cc(C(F)(F)F)c2)n1)c1cncnc1 + Cc1c(S(C)(=O)=O)c(-c2cc(F)cc(N3CCN(c4ccc(NS(=O)(=O)c5ccc(NC(CCN6CCC(C(=O)OCCCP(=O)(O)O)CC6)CSc6ccccc6)c(S(=O)(=O)C(F)(F)F)c5)cc4)CC3)c2)c(-c2ccc(Cl)cc2)n1C(C)C
Second compound 0.1 µM
  pIC50: > 9.02
Second compound 0.316 µM
  pIC50: > 9.02
Second compound 1 µM
  pIC50: > 9.02
Second compound 3.16 µM
  pIC50: > 9.02
Second compound 10 µM
  pIC50: > 9.02
Second compound 0.1 µM, first compound 0.000949 µM
  viability, T/C: 47.5%
Second compound 0.1 µM, first compound 0.003 µM
  viability, T/C: 36.2%
Second compound 0.1 µM, first compound 0.00949 µM
  viability, T/C: 22.7%
Second compound 0.1 µM, first compound 0.03 µM
  viability, T/C: 6.11%
Second compound 0.1 µM, first compound 0.0949 µM
  viability, T/C: 16.4%
Second compound 0.1 µM, first compound 0.3 µM
  viability, T/C: 4.19%
Second compound 0.316 µM, first compound 0.000949 µM
  viability, T/C: 47%
Second compound 0.316 µM, first compound 0.003 µM
  viability, T/C: 31.2%
Second compound 0.316 µM, first compound 0.00949 µM
  viability, T/C: 12.9%
Second compound 0.316 µM, first compound 0.03 µM
  viability, T/C: 7.11%
Second compound 0.316 µM, first compound 0.0949 µM
  viability, T/C: 2.26%
Second compound 0.316 µM, first compound 0.3 µM
  viability, T/C: 1.84%
Second compound 1 µM, first compound 0.000949 µM
  viability, T/C: 34%
Second compound 1 µM, first compound 0.003 µM
  viability, T/C: 38.8%
Second compound 1 µM, first compound 0.00949 µM
  viability, T/C: 13.9%
Second compound 1 µM, first compound 0.03 µM
  viability, T/C: 7.14%
Second compound 1 µM, first compound 0.0949 µM
  viability, T/C: 3.61%
Second compound 1 µM, first compound 0.3 µM
  viability, T/C: 2.25%
Second compound 3.16 µM, first compound 0.000949 µM
  viability, T/C: 30.6%
Second compound 3.16 µM, first compound 0.003 µM
  viability, T/C: 25.2%
Second compound 3.16 µM, first compound 0.00949 µM
  viability, T/C: 14.1%
Second compound 3.16 µM, first compound 0.03 µM
  viability, T/C: 5.04%
Second compound 3.16 µM, first compound 0.0949 µM
  viability, T/C: 3%
Second compound 3.16 µM, first compound 0.3 µM
  viability, T/C: 4.14%
Second compound 10 µM, first compound 0.000949 µM
  viability, T/C: 24.6%
Second compound 10 µM, first compound 0.003 µM
  viability, T/C: 33.5%
Second compound 10 µM, first compound 0.00949 µM
  viability, T/C: 13.9%
Second compound 10 µM, first compound 0.03 µM
  viability, T/C: 3.72%
Second compound 10 µM, first compound 0.0949 µM
  viability, T/C: 1.94%
Second compound 10 µM, first compound 0.3 µM
  viability, T/C: 0.83%

## O=C(c1ccc(F)c(F)c1Nc1ccc(I)cc1F)N1CC(O)([C@@H]2CCCCN2)C1 + Cc1c(S(C)(=O)=O)c(-c2cc(F)cc(N3CCN(c4ccc(NS(=O)(=O)c5ccc(NC(CCN6CCC(C(=O)OCCCP(=O)(O)O)CC6)CSc6ccccc6)c(S(=O)(=O)C(F)(F)F)c5)cc4)CC3)c2)c(-c2ccc(Cl)cc2)n1C(C)C
Second compound 0.1 µM
  pIC50: 7.67
Second compound 0.316 µM
  pIC50: > 8.50
Second compound 1 µM
  pIC50: > 8.50
Second compound 3.16 µM
  pIC50: > 8.50
Second compound 10 µM
  pIC50: > 8.50
[1]
  viability, T/C: 46.3%
[2]
  viability, T/C: 71.5%
[3]
  viability, T/C: 33.4%
[4]
  viability, T/C: 45.1%
[5]
  viability, T/C: 30.7%
[6]
  viability, T/C: 4.92%
[7]
  viability, T/C: 41.9%
[8]
  viability, T/C: 42%
[9]
  viability, T/C: 44.8%
[10]
  viability, T/C: 43.7%
[11]
  viability, T/C: 22%
[12]
  viability, T/C: 6.11%
[13]
  viability, T/C: 39.2%
[14]
  viability, T/C: 44.3%
[15]
  viability, T/C: 42.1%
[16]
  viability, T/C: 36.9%
[17]
  viability, T/C: 24.6%
[18]
  viability, T/C: 4.55%
[19]
  viability, T/C: 38.9%
[20]
  viability, T/C: 25%
[21]
  viability, T/C: 26.6%
[22]
  viability, T/C: 29.5%
[23]
  viability, T/C: 15.3%
[24]
  viability, T/C: 3.65%
[25]
  viability, T/C: 34.5%
[26]
  viability, T/C: 42%
[27]
  viability, T/C: 32.1%
[28]
  viability, T/C: 29.1%
[29]
  viability, T/C: 11.1%
[30]
  viability, T/C: 2.13%
